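Briefly, cells in 96-well plates were exposed to five compound concentrations for 48 h, and endpoints were estimated by linear interpolation. Here, GI50 denotes the concentration required for 50% inhibition of growth. TGI is the concentration that stops growth completely.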

Some test systems named below: SF-539 CNS; PC-3 prostate; CCRF-CEM leukemia; SK-MEL-28 melanoma; MALME-3M melanoma; RXF 393 renal; U251 CNS; A498 renal; HCT-15 colon; HCT-116 colon.
Experiment in all cases: NCI tumour cell line growth inhibition, 48 h

Regarding `Clc1nc(Cl)c2ncn(Cc3ccc(Cn4cnc5c(Cl)nc(Cl)nc54)cc3)c2n1`, the GI50 in the assay on SF-539 CNS is 5.04 µM; in the assay on PC-3 prostate it was 1.56 µM; in the assay with MALME-3M melanoma it was 5.62 µM; in the assay on U251 CNS, 13.2 µM; in the assay with A498 renal, 7.48 µM; with HCT-15 colon, 6.24 µM. In addition, in the assay on HCT-116 colon, the GI50 was 0.852 µM. The TGI in the assay on SF-539 CNS was 20.7 µM; in the assay with PC-3 prostate, 16.3 µM; in the assay with CCRF-CEM leukemia, 1.84 µM; in the assay on SK-MEL-28 melanoma, 28.3 µM; in the assay with MALME-3M melanoma it was 29.3 µM; with RXF 393 renal it was 0.555 µM. In addition, the TGI in the assay with U251 CNS is 27.7 µM; with A498 renal it was 50.2 µM; with HCT-15 colon, 19.3 µM; in the assay with HCT-116 colon, 16.2 µM.
As to `C=C1c2c(Cl)ccc(O)c2C(O)=C2C(=O)[C@]3(O)C(O)=C(C(N)=O)C(=O)[C@@H](N(C)C)[C@@H]3[C@@H](O)[C@H]12`, the GI50 is 1.32 µM with SF-539 CNS; 1.34 µM with PC-3 prostate; 1.45 µM in the assay on CCRF-CEM leukemia; 1.08 µM in the assay on SK-MEL-28 melanoma; 1.15 µM with MALME-3M melanoma; 0.534 µM in the assay on RXF 393 renal. Also, the GI50 with U251 CNS is 0.949 µM; with A498 renal, 0.663 µM; in the assay with HCT-15 colon, 1.44 µM; with HCT-116 colon it was 0.97 µM. Further, the TGI in the assay on SF-539 CNS turned out to be 4.61 µM; with PC-3 prostate it was 31.4 µM; in the assay with CCRF-CEM leukemia it was 39.6 µM; in the assay with SK-MEL-28 melanoma, 4.45 µM; in the assay on MALME-3M melanoma it was 3.45 µM; in the assay on RXF 393 renal it was 2.82 µM. Moreover, the TGI was 4.09 µM in the assay on U251 CNS, 4.09 µM with A498 renal, over 50 µM in the assay on HCT-15 colon and 3.22 µM with HCT-116 colon.
For `CC(Br)C(=O)Nc1ccc(C(=O)O)c(O)c1` (configuration not stated), the TGI in the assay with SF-539 CNS was over 100 µM; with PC-3 prostate, over 100 µM; with CCRF-CEM leukemia, 43.6 µM; in the assay on SK-MEL-28 melanoma it was over 100 µM; with MALME-3M melanoma, 42.1 µM; with RXF 393 renal it was over 100 µM. The TGI was 62.8 µM with U251 CNS, over 100 µM in the assay with A498 renal, over 100 µM in the assay on HCT-15 colon and over 100 µM with HCT-116 colon.
In the case of `Oc1ccc(Cl)cc1CNc1nc2ccccc2[nH]1`, the GI50 is 12.9 µM in the assay on SF-539 CNS; 9.75 µM in the assay on PC-3 prostate; 17.9 µM in the assay on CCRF-CEM leukemia; 13.6 µM with SK-MEL-28 melanoma; 13.8 µM in the assay on MALME-3M melanoma; 10.3 µM in the assay with RXF 393 renal. For the same compound, the GI50 in the assay with U251 CNS was 11.7 µM; with A498 renal it was 0.141 µM; in the assay with HCT-15 colon, 11.5 µM; with HCT-116 colon, 12.1 µM. The TGI is 26.8 µM with SF-539 CNS; 23.3 µM in the assay on PC-3 prostate; 88.5 µM in the assay on CCRF-CEM leukemia; 27.9 µM in the assay with SK-MEL-28 melanoma; 32.9 µM with MALME-3M melanoma; 23.9 µM with RXF 393 renal. For the same compound, the TGI with U251 CNS came to 24.5 µM; with A498 renal, 18.2 µM; in the assay with HCT-15 colon, 26.1 µM; with HCT-116 colon, 24.7 µM.
Consider `CSc1cccc(NC(=O)OC2CCCCCCCCCCC2)c1`, for which the TGI was 63.7 µM with SF-539 CNS; over 100 µM in the assay on PC-3 prostate; 45.5 µM with CCRF-CEM leukemia; over 100 µM with SK-MEL-28 melanoma; 59.1 µM in the assay with MALME-3M melanoma; 70.9 µM in the assay on RXF 393 renal. The TGI is 41 µM in the assay with U251 CNS, 62.3 µM with A498 renal, over 100 µM in the assay on HCT-15 colon and 38.9 µM in the assay on HCT-116 colon.
For the compound `CC(C)COC(=O)c1ccc2[nH]c(O)c(C=Nc3ccc(S(N)(=O)=O)cc3)c2c1`, the GI50 in the assay on SF-539 CNS was 0.975 µM; with PC-3 prostate, 1.6 µM; in the assay with CCRF-CEM leukemia it was 0.823 µM; in the assay with SK-MEL-28 melanoma it was 1.69 µM; in the assay on MALME-3M melanoma, 4.97 µM; in the assay on RXF 393 renal, 0.747 µM. Further, the GI50 in the assay on U251 CNS is 0.879 µM; in the assay on A498 renal, 2.28 µM; with HCT-15 colon, 5.9 µM; in the assay with HCT-116 colon, 0.613 µM. In addition, the TGI turned out to be 3.67 µM with SF-539 CNS; 6.54 µM in the assay with PC-3 prostate; 15.3 µM in the assay with CCRF-CEM leukemia; 4.75 µM with SK-MEL-28 melanoma; 10.9 µM with MALME-3M melanoma; 1.61 µM in the assay on RXF 393 renal. The TGI is 4.13 µM with U251 CNS, 5.9 µM with A498 renal, 25 µM with HCT-15 colon and 3 µM in the assay on HCT-116 colon.
Regarding `COc1ccc(-c2nn(-c3cccc(NC(=O)c4ccc(N5CCOCC5)c(C(F)(F)F)c4)c3)cc2-c2ccncc2)cc1Cl`, the GI50 in the assay on SF-539 CNS is 2.66 µM; in the assay on PC-3 prostate, 3.49 µM; in the assay with CCRF-CEM leukemia, 2.92 µM; in the assay on SK-MEL-28 melanoma, 9.97 µM; in the assay on MALME-3M melanoma, 5.05 µM; in the assay with RXF 393 renal, 1.35 µM. Also, the GI50 in the assay with U251 CNS is 1.14 µM; in the assay with A498 renal, 2.44 µM; in the assay with HCT-15 colon, 2.99 µM; in the assay on HCT-116 colon, 3.74 µM. For the same compound, the TGI is 36.3 µM in the assay on SF-539 CNS; over 50 µM with PC-3 prostate; over 50 µM with CCRF-CEM leukemia; over 50 µM in the assay with SK-MEL-28 melanoma; over 50 µM with MALME-3M melanoma; 23.3 µM with RXF 393 renal. Further, the TGI is over 50 µM in the assay on U251 CNS, 26.4 µM in the assay with A498 renal, over 50 µM with HCT-15 colon and over 50 µM in the assay on HCT-116 colon.
As to `COc1ccc2nc(NC(=O)c3cccnc3Nc3cc(OC)c(OC)c(OC)c3)sc2c1`, the GI50 is 2.8 µM in the assay on SF-539 CNS; 6.67 µM in the assay with PC-3 prostate; 20.1 µM in the assay on CCRF-CEM leukemia; 7.88 µM with SK-MEL-28 melanoma; 10.1 µM in the assay on MALME-3M melanoma; 2.6 µM in the assay on RXF 393 renal. Also, the GI50 was 7.1 µM in the assay with U251 CNS, 2.19 µM in the assay on A498 renal, 11.2 µM in the assay on HCT-15 colon and 4.5 µM in the assay on HCT-116 colon. Further, the TGI was 11.2 µM with SF-539 CNS; 23.2 µM in the assay on PC-3 prostate; over 100 µM with CCRF-CEM leukemia; 21.3 µM in the assay on SK-MEL-28 melanoma; 24.6 µM with MALME-3M melanoma; 8.85 µM in the assay with RXF 393 renal. The TGI in the assay with U251 CNS is 21.7 µM; with A498 renal, 7.42 µM; in the assay with HCT-15 colon, 85.6 µM; in the assay on HCT-116 colon, 18.4 µM.

The values are drawn from PubChem BioAssay (NCI).
